Test results published in patent US6737383B1, “Herbicidal oxadiazolidines” (priority 1999, dated 2004).

Legend:
[1] = test system: velvetleaf; assay: Test B pre/postemergence velvetleaf; format: in vivo, Abutilon theophrasti
Procedure, shortened: (§1)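 Response is a visual 0-to-10 score relative to untreated plants, where 0 means no effect and 10 means complete control, taken twelve to sixteen days after application. Treatments went onto soil at planting and onto foliage of 1- to 4-leaf plants, using a surfactant-containing non-phytotoxic solvent.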

[2] = test system: duck salad; assay: Test B flood test duck salad; format: in vivo, Heteranthera limosa
Procedure, shortened: (§2)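 Read-out is a visual response score from 0 (no effect) to 10 (complete control), assigned by comparison with untreated controls. Treatment was applied at the 2-leaf stage, and plants stayed in the greenhouse for twelve to sixteen days before scoring.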

[3] = test system: bamyardgrass; assay: Test B flood test barnyardgrass; format: in vivo, Echinochloa crus-galli
Procedure, shortened: as §2

[4] = test system: smallflower flatsedge; assay: Test B flood test smallflower flatsedge; format: in vivo, Cyperus difformis
Procedure, shortened: as §2

[5] = test system: wheat; assay: Test B pre/postemergence wheat; format: in vivo, Triticum aestivum
Procedure, shortened: as §1

[6] = test system: bedstraw; assay: Test B pre/postemergence bedstraw; format: in vivo, Galium aparine
Procedure, shortened: as §1

[7] = test system: cocklebur; assay: Test B pre/postemergence cocklebur; format: in vivo, Xanthium strumarium
Procedure, shortened: as §1

[8] = test system: surinam grass; assay: Test B pre/postemergence surinam grass; format: in vivo, Brachiaria decumbens
Procedure, shortened: as §1

[9] = test system: wild oat; assay: Test B pre/postemergence wild oat; format: in vivo, Avena fatua
Procedure, shortened: as §1

[10] = test system: soybean; assay: Test B pre/postemergence soybean; format: in vivo, Glycine max
Procedure, shortened: as §1

[11] = test system: corn; assay: Test B pre/postemergence corn; format: in vivo, Zea mays
Procedure, shortened: as §1

[12] = test system: blackgrass; assay: Test B pre/postemergence blackgrass; format: in vivo, Alopecurus myosuroides
Procedure, shortened: as §1

[13] = test system: rape; assay: Test B pre/postemergence rape; format: in vivo, Brassica napus
Procedure, shortened: as §1

[14] = test system: rice; assay: Test B flood test rice; format: in vivo, Oryza sativa
Procedure, shortened: as §2

[15] = test system: purple nutsedge; assay: Test B pre/postemergence purple nutsedge; format: in vivo, Cyperus rotundus
Procedure, shortened: as §1

[16] = test system: sugar beet; assay: Test B pre/postemergence sugar beet; format: in vivo, Beta vulgaris
Procedure, shortened: as §1

[17] = test system: crabgrass; assay: Test B pre/postemergence crabgrass; format: in vivo, Digitaria sanguinalis
Procedure, shortened: as §1

[18] = Preemergence, Rate 62 g/ha, scale of 0 to 10 where 0 is no effect and 10 is complete control
[19] = Preemergence, Rate 125 g/ha, 0 is no effect, 10 is complete control
[20] = Preemergence, Rate 250 g/ha, scale 0 to 10, 0 is no effect, 10 is complete control
[21] = Preemergence, Rate 500 g/ha, scale 0 to 10 (0 no effect, 10 complete control)
[22] = Rate 250 g/ha, Postemergence, scale 0 to 10, 0 is no effect, 10 is complete control
[23] = Rate 500 g/ha, Postemergence, scale 0 to 10
[24] = Postemergence (flood test species), Rate 125 g/ha, scale of 0 to 10 where 0 is no effect and 10 is complete control
[25] = Rate 62 g/ha, Postemergence section, flood test species, scale of 0 to 10 where 0 is no effect and 10 is complete control
[26] = Rate 250 g/ha, Postemergence (flood test), scale 0 to 10, 0 is no effect, 10 is complete control
[27] = Rate 500 g/ha, listed under Postemergence (flood test species), scale 0 to 10
[28] = Postemergence, Rate 125 g/ha, scale of 0 to 10 where 0 is no effect and 10 is complete control
[29] = Rate 62 g/ha, Postemergence, scale of 0 to 10 where 0 is no effect and 10 is complete control

CC(C)Cn1c(=O)on(C(=O)N(c2ccc(F)cc2)C(C)C)c1=O [Compound 169]
Velvetleaf plant response rating [1, 18]: 2 | Velvetleaf plant response rating (0 to 10 scale) [1, 19]: 2 | Velvetleaf plant response rating [1, 20]: 6 | Velvetleaf plant response rating [1, 21]: 8 | Plant response rating, Velvetleaf [1, 22]: 0 | Velvetleaf plant response rating [1, 23]: 0 | Ducksalad plant response rating [2, 24]: 0 | Ducksalad plant response rating [2, 25]: 0 | Plant response rating, Ducksalad [2, 26]: 0 | Ducksalad plant response rating [2, 27]: 0 | Barnyardgrass plant response rating [3, 24]: 0 | Barnyardgrass plant response rating [3, 25]: 0 | Plant response rating, Barnyardgrass [3, 26]: 0 | Barnyardgrass plant response rating [3, 27]: 0 | S. Flatsedge plant response rating [4, 24]: 0 | S. Flatsedge plant response rating [4, 25]: 0 | Plant response rating, S. Flatsedge [4, 26]: 0 | S. Flatsedge plant response rating [4, 27]: 0 | Wheat plant response rating [5, 18]: 0 | Wheat plant response rating (0 to 10 scale) [5, 19]: 0 | Wheat plant response rating [5, 20]: 3 | Wheat plant response rating [5, 21]: 4 | Plant response rating, Wheat [5, 22]: 0 | Wheat plant response rating [5, 23]: 2 | Bedstraw plant response rating [6, 28]: 2 | Bedstraw plant response rating [6, 18]: 0 | Bedstraw plant response rating (0 to 10 scale) [6, 19]: 0 | Bedstraw plant response rating [6, 20]: 7 | Bedstraw plant response rating [6, 21]: 10 | Bedstraw plant response rating [6, 29]: 2 | Plant response rating, Bedstraw [6, 22]: 7 | Cocklebur plant response rating [7, 28]: 0 | Cocklebur plant response rating [7, 18]: 0 | Cocklebur plant response rating (0 to 10 scale) [7, 19]: 0 | Cocklebur plant response rating [7, 20]: 0 | Cocklebur plant response rating [7, 21]: 0 | Cocklebur plant response rating [7, 29]: 0 | Plant response rating, Cocklebur [7, 22]: 0 | Cocklebur plant response rating [7, 23]: 3 | B. signalgrass plant response rating [8, 28]: 0 | B. signalgrass plant response rating [8, 18]: 7 | B. signalgrass plant response rating (0 to 10 scale) [8, 19]: 7 | B. signalgrass plant response rating [8, 20]: 7 | B. signalgrass plant response rating [8, 21]: 7 | B. signalgrass plant response rating [8, 29]: 0 | Plant response rating, B. signalgrass [8, 22]: 0 | B. signalgrass plant response rating ([8]; Rate 500 g/ha, Postemergence, scale 0 to 10, 0 no effect, 10 complete control): 7 | Wild oats plant response rating [9, 18]: 8 | Wild oats plant response rating (0 to 10 scale) [9, 19]: 8 | Wild oats plant response rating [9, 20]: 8 | Wild oats plant response rating [9, 21]: 10 | Plant response rating, Wild oats [9, 22]: 0 | Wild oats plant response rating [9, 23]: 2 | Soybean plant response rating [10, 28]: 1 | Soybean plant response rating [10, 18]: 0 | Soybean plant response rating (0 to 10 scale) [10, 19]: 0 | Soybean plant response rating [10, 20]: 2 | Soybean plant response rating [10, 21]: 5 | Soybean plant response rating [10, 29]: 1 | Plant response rating, Soybean [10, 22]: 3 | Soybean plant response rating [10, 23]: 6 | Corn plant response rating [11, 28]: 0 | Corn plant response rating [11, 18]: 0 | Corn plant response rating (0 to 10 scale) [11, 19]: 0 | Corn plant response rating [11, 20]: 3 | Corn plant response rating [11, 21]: 6 | Corn plant response rating [11, 29]: 0 | Plant response rating, Corn [11, 22]: 0 | Corn plant response rating [11, 23]: 0 | Blackgrass plant response rating [12, 28]: 4 | Blackgrass plant response rating [12, 18]: 3 | Blackgrass plant response rating (0 to 10 scale) [12, 19]: 3 | Blackgrass plant response rating [12, 20]: 8 | Blackgrass plant response rating [12, 21]: 10 | Blackgrass plant response rating [12, 29]: 2 | Plant response rating, Blackgrass [12, 22]: 5 | Blackgrass plant response rating [12, 23]: 9 | Rape plant response rating [13, 28]: 0 | Rape plant response rating [13, 18]: 2 | Rape plant response rating (0 to 10 scale) [13, 19]: 2 | Rape plant response rating [13, 20]: 6 | Rape plant response rating [13, 21]: 10 | Rape plant response rating [13, 29]: 0 | Plant response rating, Rape [13, 22]: 0 | Rape plant response rating [13, 23]: 3 | Rice plant response rating [14, 24]: 0 | Rice plant response rating [14, 25]: 0 | Plant response rating, Rice [14, 26]: 0 | Rice plant response rating [14, 27]: 0 | Nutsedge plant response rating [15, 28]: 0 | Nutsedge plant response rating [15, 18]: 0 | Nutsedge plant response rating (0 to 10 scale) [15, 19]: 0 | Nutsedge plant response rating [15, 20]: 0 | Nutsedge plant response rating [15, 21]: 3 | Nutsedge plant response rating [15, 29]: 0 | Plant response rating, Nutsedge [15, 22]: 0 | Nutsedge plant response rating [15, 23]: 0 | Sugarbeets plant response rating [16, 28]: 0 | Sugarbeets plant response rating [16, 18]: 0 | Sugarbeets plant response rating (0 to 10 scale) [16, 19]: 0 | Sugarbeets plant response rating [16, 20]: 7 | Sugarbeets plant response rating [16, 21]: 8 | Sugarbeets plant response rating [16, 29]: 0 | Plant response rating, Sugarbeets [16, 22]: 0 | Sugarbeets plant response rating [16, 23]: 0 | Crabgrass plant response rating [17, 28]: 8 | Crabgrass plant response rating [17, 18]: 8 | Crabgrass plant response rating (0 to 10 scale) [17, 19]: 8 | Crabgrass plant response rating [17, 20]: 10 | Crabgrass plant response rating [17, 21]: 10 | Crabgrass plant response rating [17, 29]: 2 | Plant response rating, Crabgrass [17, 22]: 9 | Crabgrass plant response rating [17, 23]: 9
